In patent US11826429B2, “Pharmaceutical composition comprising brinzolamide” (SENTISS PHARMA PRIVATE LIMITED, priority 2014, dated 2023):
Converted amounts (≈) assume the structure as drawn.

How the values were obtained:
[1] = pH 6.25; cited from earlier work
[2] = Solubility studies (supernatant filtered through 0.45 syringe filter and analysed); assay type: physicochemical; conditions: for Solubility % w/v, No Further addition to the ingredients of Column 2: autoclaved 121° C./30 min, cooled; for Solubility % w/v, Polysorbate 80 (1%) in addition to the composition of Column 2: plus Polysorbate 80 (1%)
Description: (§1) Purified water was taken in Schott bottle. Brinzolamide was added with continuous stirring. After 30 min its pH was adjusted to 6. It was stirred for 24 hours. After which, the supernatant was filtered with 0.45 µm syringe filter and then its solubility was determined.
as §1, with “6 and was autoclaved at 121° C./30 min. After autoclaving the sample was cooled to room temperature.” for “6.”
Purified water is taken in Schott bottle. Soluplus® is added to it while stirring for 10-15 min. Polysorbate 80 is added to it while stirring for 10-20 min. After it has dissolved completely Brinzolamide is added with continuous stirring. After 30 min pH is checked and adjusted to 6 with 0.1 N NaOH. It is autoclaved at 121° C./30 min. After autoclaving the formulation is cooled to room temperature with stirring.
In order to determine the solubility the sample was centrifuged at 3500 rpm for 5 min followed by filtration through 0.45 µm syringe filter and analysis.

For CCN[C@H]1CN(CCCOC)S(=O)(=O)c2sc(S(N)(=O)=O)cc21 [brinzolamide, (R)-(+)-4-ethylamino-2-(3-methoxypropyl)-3,4-dihydro-2H-thieno[3,2-e]-1,2-thiazine-6-sulfonamide-1,1-dioxide], the “Solubility as per literature” value [1] is given as 0.059 % w/v, the “Solubility when API is autoclaved and cooled” value ([2]; pH 6.0) is given as 0.082% and the “Solubility % w/v, No Further addition to the ingredients of Column 2” value ([2]; pH 6) is given as 0.085 % w/v. The “Solubility % w/v, No Further addition to the ingredients of Column 2” value ([2]; pH 6, listed as Autoclaved API) was 0.0822 % w/v, the “Solubility % w/v, PEG 400 (5%) in addition to the composition of Column 2” value ([2]; pH 6, autoclaved, plus PEG 400 (5%)) was 0.0668 % w/v and the “Solubility % w/v, Polysorbate 80 (1%) in addition to the composition of Column 2” value ([2]; pH 6, autoclaved) was 0.2 % w/v. For the same compound, the “Solubility % w/v, Polysorbate 80 (1%) in addition to the composition of Column 2” value ([2]; pH 6, autoclaved, listed as Autoclaved API) was 0.2089 % w/v and the solubility thermodynamic at 24 h ([2]; purified water, pH adjusted to 6, aqueous buffer, thermodynamic from solid, pH 6.0, not autoclaved, stirred 24 hours, read-out: Solubility determined in the lab) was 545 µg/mL (≈ 1420 µM).
